From patent US4241056A, “Penicillins and salts thereof” (Boehringer Ingelheim GmbH, priority 1978, dated 1980)

How the values were obtained:
[1] = Serum (blood) level in rats; assay type: in vivo; details: rat, average from 3 rats; for concentration at 1 h: 60 min.; for concentration at 2 h: 120 min.; for concentration at 0.5 h: 30 min.
Description: For the determination of the serum level in rats, typical representatives of the penicillins according to the invention were administered at a dosage of 10 mg/kg subcutaneously or 100 mg/kg per os to groups of 3 female FW 49 rats (weight 100 to 130 gm) each. Blood tests taken from the heart were worked up, and the obtained sera were tested by the cylinder test-agar diffusion method on plates with sarcina lutea ATCC 15957. The samples were compared with standard curves.

E. coli ATCC 11775 = assay: In vivo activity against experimental infection in mice; design: species or system mouse (NMRI); details: Escherichia coli, ATCC11775, sc, 168 h, subcutaneous, 7 days observation, read-out: ED50 (dose at which 50% of the animals survived)
Description: A number of compounds of this invention were tested in vivo in mice against experimental infections. Bacteria E. coli ATCC 11775 and pseudomonas aeruginosa walter were used as pathogens. An intraperitoneal infection with 0.2 ml of a 5% mucin suspension of the bacteria was induced. This corresponds to about 2×10^6 germs E. coli and 8×10^5 germs pseudomonas/mouse. Female NMRI mice were divided into groups of 10 animals each, two control groups remained untreated, the remaining groups were treated with different doses of the respective penicillins for the determination of the ED50 (dose at which 50% of the animals survived). The groups with the E. coli infection were treated with the substance 3 times on the first day (1, 4 and 7 hours post-infectionem) and for 2 days thereafter twice a day. The groups with the pseudomonas infection were treated with the substance applied 6 times on the first day (1, 3, 6, 9, 12, and 15 hours post-infectionem) and for 2 days thereafter twice a day. The observation time was in both cases 7 days.

[2] = tested on: escherichia coli ATCC 9637; assay: MIC, serial dilution test in the microtiter system; assay type: cell-based; details: ATCC9637, 18 h, E. coli ATCC 9637, 37° C., 18-20 hours
Description: (§1) The tests were performed according to the method of the serial dilution test in the microtiter system. The effect of the substances on bacteriostasis was examined in a fluid medium. The activity on bacteriostatis was examined at the following concentrations:
(§2) 10 gm of peptone, 8 gm of meat extract-oxoid, 3 gm of sodium chloride, 2 gm of sec. sodium phosphate were diluted with distilled water to 1000 ml (pH 7.2-7.4). Only in the test against streptococci 1% of glucose was added. The age of the primary cultures was about 20 hours. The standardizations of the pathogen suspension was effected by using a photometer according to "Eppendorf" (test tube diameter 14 mm, filter 546 nm) with the aid of the turbidity of a comparison suspension consisting of barium sulfate, this suspension being prepared by addition of 3.0 ml of 1% barium chloride solution to 97 ml of 1% sulfuric acid. After the standardization, streptococcus aronson were further diluted to a concentration of 1:15 and the other germs to a concentration of 1:1500 by menas of a sodium chloride solution.
(§3) 16 mg of the test substance were put into a 10 ml measuring flask and filled up to the mark with the solvent. The further dilution series was standardized with distilled water or the respective solvent.
(§4) The cavities of the microtiter plates were filled with 0.2 ml of nutrient medium. Then, 0.01 ml of the corresponding test substance dilution was added and inoculated with 0.01 ml of the standardized suspension. The bacteria were incubated at 37° C. for 18-20 hours. Control tests merely using the solvent were carried out simultaneously.
(§5) The measurement was carried out macroscopically to determine the minimal inhibitory (threshold) concentration, i.e. the lowest still bacteriostatically effective concentration.
(§6) Staphylococcus aureus SG 511, streptococcus aronson, streptococcus faecalis ATCC 10541, escherichia coli ATCC 9637, 11 775 and escherichia coli 12593/74 (β-lactamase carrier), pseudomonas aeruginosa hamburgensis and ATCC 10145, serratia marcescens ATCC 13 880, klebsiella pneumoniae ATCC 10 031 and 272 and proteus mirabilis hamburgensis.

[3] = tested on: pseudomonas aeruginosa hamburgensis; assay: MIC, serial dilution test in the microtiter system; assay type: cell-based; details: 18 h, pseud. aerug. hamb., 37° C., 18-20 hours
Description: as §1, §2, §3, §4, §5, §6

[4] = tested on: escherichia coli 12593/74 (β-lactamase carrier); assay: MIC, serial dilution test in the microtiter system; assay type: cell-based; details: 18 h, E. coli 12593/74 (β-lactamase carrier), 37° C., 18-20 hours
Description: as §1, §2, §3, §4, §5, §6

streptococcus aronson = assay: MIC, serial dilution test in the microtiter system; assay type: cell-based; details: 18 h, strept. aronson, 1% glucose added, 37° C., 18-20 hours
Description: as §1, §2, §3, §4, §5, §6

[5] = tested on: klebsiella pneumoniae 272; assay: MIC, serial dilution test in the microtiter system; assay type: cell-based; details: 18 h, klebs pneum. 272, 37° C., 18-20 hours
Description: as §1, §2, §3, §4, §5, §6

[6] = tested on: proteus mirabilis hamburgensis; assay: MIC, serial dilution test in the microtiter system; assay type: cell-based; details: 18 h, prot. mirabilis, 37° C., 18-20 hours
Description: as §1, §2, §3, §4, §5, §6

[7] = tested on: serratia marcescens ATCC 13 880; assay: MIC, serial dilution test in the microtiter system; assay type: cell-based; details: ATCC13, 18 h, serrat marcesc., 37° C., 18-20 hours
Description: as §1, §2, §3, §4, §5, §6

[8] = tested on: pseudomonas aeruginosa ATCC 10145; assay: MIC, serial dilution test in the microtiter system; assay type: cell-based; details: ATCC10145, 18 h, pseud. aerug. ATCC 10145, 37° C., 18-20 hours
Description: as §1, §2, §3, §4, §5, §6

[9] = tested on: streptococcus faecalis ATCC 10541; assay: MIC, serial dilution test in the microtiter system; assay type: cell-based; details: Enterococcus faecalis, ATCC10541, 18 h; strept. faecal.; 37° C., 18-20 hours
Description: as §1, §2, §3, §4, §5, §6

[10] = tested on: Staphylococcus aureus SG 511; assay: MIC, serial dilution test in the microtiter system; assay type: cell-based; details: SG511, 18 h, Staph. Aureus SG 511, 37° C., 18-20 hours
Description: as §1, §2, §3, §4, §5, §6

[11] = tested on: escherichia coli ATCC 11775; assay: MIC, serial dilution test in the microtiter system; assay type: cell-based; details: ATCC11775, 18 h, E. coli ATCC 11775, 37° C., 18-20 hours
Description: as §1, §2, §3, §4, §5, §6

[12] = tested on: klebsiella pneumoniae ATCC 10 031; assay: MIC, serial dilution test in the microtiter system; assay type: cell-based; details: 18 h, klebs pneum ATCC 10031, 37° C., 18-20 hours
Description: as §1, §2, §3, §4, §5, §6

Structure (SMILES) | concentration at 1 h ([1]; oral 100 mg/kg) [ng/mL] | concentration at 2 h ([1]; oral 100 mg/kg) [ng/mL] | concentration at 1 h ([1]; sc, subcutaneous 10 mg/kg) [ng/mL] | concentration at 2 h ([1]; sc, subcutaneous 10 mg/kg) [ng/mL] | ED50 (E. coli ATCC 11775) [mg/kg] | MIC [2] [µg/mL] | MIC [3] [µg/mL] | MIC [4] [µg/mL] | MIC (streptococcus aronson) [µg/mL] | MIC [5] [µg/mL] | MIC [6] [µg/mL] | MIC [7] [µg/mL] | MIC [8] [µg/mL] | MIC [9] [µg/mL] | MIC [10] [µg/mL] | MIC [11] [µg/mL] | MIC [12] [µg/mL] | concentration at 0.5 h ([1]; oral 100 mg/kg) [ng/mL] | concentration at 0.5 h ([1]; sc, subcutaneous 10 mg/kg) [ng/mL]
Cc1ncc(NC(=O)N[C@@H](C(=O)N[C@@H]2C(=O)N3[C@@H]2SC(C)(C)[C@@H]3C(=O)O)c2ccc(O)cc2)c(O)n1 [B, D-α-[3-(4-hydroxy-2-methyl-5-pyrimidyl)-ureido]-p-hydroxybenzyl-penicillin sodium] | 18800 | 1900 | 7300 | 1100 | 5 | 2.5 | 5 | 80 | 0.3 | 80 | 0.6 | 5 | 2.5 | 10 | 1.25 | 1.25 | 80 | – | –
CC(=O)Nc1ncc(NC(=O)N[C@@H](C(=O)N[C@@H]2C(=O)N3[C@@H]2SC(C)(C)[C@@H]3C(=O)O)c2ccc(O)cc2)c(O)n1 [Compound E, D-α-[3-(acetylamino-4-hydroxy-pyrimidyl)-ureido]-p-hydroxybenzyl-penicillin sodium] | 13900 | 13700 | 5800 | 7700 | 15 | 5 | 2.5 | > 80 | 0.3 | 80 | 1.25 | 10 | 2.5 | 10 | 1.25 | 2.5 | 80 | 13800 | 4100
CC1(C)S[C@@H]2[C@H](NC(=O)[C@H](NC(=O)Nc3cnc(Nc4ccc(Cl)c(Cl)c4)nc3O)c3ccc(O)cc3)C(=O)N2[C@H]1C(=O)O [J, D-α-[3-(2-m,p-dichloroanilino-4-hydroxy-5-pyrimidyl)-ureido]-p-hydroxybenzyl-penicillin sodium] | – | – | – | – | – | 1.25 | 2.5 | 10 | 0.02 | 2.5 | 0.6 | 0.6 | 2.5 | 2.5 | – | 0.6 | 2.5 | – | –
CC1(C)S[C@@H]2[C@H](NC(=O)[C@H](NC(=O)Nc3cnc(N4CCOCC4)nc3O)c3ccc(O)cc3)C(=O)N2[C@H]1C(=O)O [K, D-α-[3-(4-hydroxy-2-morpholiono-5-pyrimidyl)-ureido]-p-hydroxybenzyl-penicillin sodium] | – | – | – | – | – | 2.5 | 2.5 | > 80 | 0.3 | 80 | 1.25 | 5 | 1.25 | 10 | 1.25 | 2.5 | > 80 | – | –
CC1(C)S[C@@H]2[C@H](NC(=O)[C@H](NC(=O)Nc3cnc(NC4CCCCC4)nc3O)c3ccc(O)cc3)C(=O)N2[C@H]1C(=O)O [L, D-α-[3-(2-cyclohexylamino-4-hydroxy-5-pyrimidyl)-ureido]-p-hydroxybenzyl-penicillin sodium] | – | – | – | – | – | 0.6 | 2.5 | > 80 | 0.08 | 10 | 0.6 | 1.25 | 2.5 | 5 | 0.3 | 1.25 | 20 | – | –
